“And” between values parts separate entries of the source, which are not always exact repeats. Identical values can stand only once.
Conditions: one skin biopsy 0.28 cm^2, 90 minutes
Description: A solution of E2 14C was prepared by adding 6 μL of E2 14C to 100 μL of water:ethanol (9:1) and mixed thoroughly.
The skin was marked with a surface area of 1.3 cm^2 followed by 20 times of tape stripping (D-Squame tape, 22 mm diameter) to remove the stratum corneum. The prepared E2 solutions were applied on tape stripped skin and left in the water bath for 90 minutes at 37° C. At the end of the experiment, residual materials were removed from the surface by wetting cotton swabs three times. The skin was then biopsied using a microsampling device with a diameter of 6 mm. Each piece of biopsy was placed in a 4 mL scintillation tube followed by adding 500 μL of the Solvable™ solution (Perkin Elmer Inc. USA). The samples were left in the incubator at 60° C. to digest skin overnight. To measure the E2 14C amount in each, scintillation fluid (Ultima Gold™ XR, Perkin Elmer Inc. USA) was added to fill the 4 mL tube and vortexed vigorously. […] The experiment was done in triplicates.
To calculate DPM, a counting efficiency of 25% was considered.

CPM (10 μL/cm^2 in water-ethanol on tape stripped skin): 1365 and 940 and 869
DPM (counting efficiency 25%, tape stripped skin): 5337 and 3760 and 3476
SMILES: C[C@]12CC[C@@H]3c4ccc(O)[14cH]c4CC[C@H]3[C@@H]1CC[C@@H]2O [E2-14C, Estradiol, 17 β-[4-^14C]]
Total E2 (ng/Biopsy) (tape stripped skin): 11.9 ng/Biopsy and 8.4 ng/Biopsy and 7.7 ng/Biopsy
ng/Biopsy (E2-14C) (tape stripped skin): 11.9 ng/Biopsy and 8.4 ng/Biopsy and 7.7 ng/Biopsy
μCi/Biopsy (tape stripped skin): 0.002402 μCi/Biopsy and 0.001692 μCi/Biopsy and 0.001564 μCi/Biopsy

Source: patent US20260263350A1, “COMPOSITIONS” (Estrenue Pty Ltd, priority 2022, published 2026)
